Results published in ChEMBL document CHEMBL3045770, “Design and synthesis of some thieno[2,3-c]pyridazine derivatives of expected anticancer activity” (2013).

Key:
Type in all cases: functional
HT-29 = test: Cytotoxicity against Homo sapiens (human) HT-29 assessed as cell growth at 10 uM after 48 hr by SRB assay relative to control; conditions: HT-29, 48 h, read-out: Activity
Hs-578T = test: Cytotoxicity against Homo sapiens (human) Hs 578T assessed as cell growth at 10 uM after 48 hr by SRB assay relative to control; conditions: read-out: Activity
NCI-H23 [1] = test: Cytotoxicity against Homo sapiens (human) NCI-H23 assessed as cell growth at 10 uM after 48 hr by SRB assay relative to control; conditions: NCI-H23, 48 h, read-out: Activity
ACHN = test: Cytotoxicity against Homo sapiens (human) ACHN assessed as cell growth at 10 uM after 48 hr by SRB assay relative to control; conditions: read-out: Activity
KM12 = test: Cytotoxicity against Homo sapiens (human) KM12 assessed as cell growth at 10 uM after 48 hr by SRB assay relative to control; conditions: KM12, 48 h, read-out: Activity
SK-MEL-2 = test: Cytotoxicity against Homo sapiens (human) SK-MEL-2 assessed as cell growth at 10 uM after 48 hr by SRB assay relative to control; conditions: SK-MEL-2, 48 h, read-out: Activity
SK-OV-3 = test: Cytotoxicity against Homo sapiens (human) SKOV3 assessed as cell growth at 10 uM after 48 hr by SRB assay relative to control; conditions: SK-OV-3, 48 h, read-out: Activity
HCT-15 [2] = test: Cytotoxicity against Homo sapiens (human) HCT15 assessed as cell growth at 10 uM after 48 hr by SRB assay relative to control; conditions: HCT-15, 48 h, read-out: Activity
OVCAR-3 = test: Cytotoxicity against Homo sapiens (human) OVCAR3 assessed as cell growth at 10 uM after 48 hr by SRB assay relative to control; conditions: OVCAR-3, 48 h, read-out: Activity
SF-539 = test: Cytotoxicity against Homo sapiens (human) SF539 assessed as cell growth at 10 uM after 48 hr by SRB assay relative to control; conditions: SF-539, 48 h, read-out: Activity
UO-31 = test: Cytotoxicity against Homo sapiens (human) UO31 assessed as cell growth at 10 uM after 48 hr by SRB assay relative to control; conditions: UO-31, 48 h, read-out: Activity
HOP-92 = test: Cytotoxicity against Homo sapiens (human) HOP92 assessed as cell growth at 10 uM after 48 hr by SRB assay relative to control; conditions: HOP-92, 48 h, read-out: Activity
MOLT-4 = test: Cytotoxicity against Homo sapiens (human) MOLT4 assessed as cell growth at 10 uM after 48 hr by SRB assay relative to control; conditions: MOLT-4, 48 h, read-out: Activity
NCI-H522 = test: Cytotoxicity against Homo sapiens (human) NCI-H522 assessed as cell growth at 10 uM after 48 hr by SRB assay relative to control; conditions: NCI-H522, 48 h, read-out: Activity
UACC-257 [3] = test: Cytotoxicity against Homo sapiens (human) UACC257 assessed as cell growth at 10 uM after 48 hr by SRB assay relative to control; conditions: UACC-257, 48 h, read-out: Activity
NCI-H322M = test: Cytotoxicity against Homo sapiens (human) NCI-H322M assessed as cell growth at 10 uM after 48 hr by SRB assay relative to control; conditions: read-out: Activity
U-251 = test: Cytotoxicity against Homo sapiens (human) U251 assessed as cell growth at 10 uM after 48 hr by SRB assay relative to control; conditions: U-251, 48 h, read-out: Activity
SF-268 = test: Cytotoxicity against Homo sapiens (human) SF268 assessed as cell growth at 10 uM after 48 hr by SRB assay relative to control; conditions: SF-268, 48 h, read-out: Activity
MDA-MB-231 = test: Cytotoxicity against Homo sapiens (human) MDA-MB-231 assessed as cell growth at 10 uM after 48 hr by SRB assay relative to control; conditions: MDA-MB-231, 48 h, read-out: Activity
HOP-62 = test: Cytotoxicity against Homo sapiens (human) HOP62 assessed as cell growth at 10 uM after 48 hr by SRB assay relative to control; conditions: HOP-62, 48 h, read-out: Activity
Malme-3M = test: Cytotoxicity against Homo sapiens (human) MALME-3M assessed as cell growth at 10 uM after 48 hr by SRB assay relative to control; conditions: read-out: Activity
SF-295 = test: Cytotoxicity against Homo sapiens (human) SF295 assessed as cell growth at 10 uM after 48 hr by SRB assay relative to control; conditions: SF-295, 48 h, read-out: Activity
NCI-H460 = test: Cytotoxicity against Homo sapiens (human) NCI-H460 cells after 48 hr by SRB assay; conditions: NCI-H460, 48 h
A498 = test: Cytotoxicity against Homo sapiens (human) A498 cells after 48 hr by SRB assay; conditions: A498, 48 h
UACC-257 [4] = test: Cytotoxicity against Homo sapiens (human) UACC257 cells after 48 hr by SRB assay; conditions: UACC-257, 48 h
HCT-15 [5] = test: Cytotoxicity against Homo sapiens (human) HCT15 cells after 48 hr by SRB assay; conditions: HCT-15, 48 h
OVCAR-4 = test: Cytotoxicity against Homo sapiens (human) OVCAR4 cells after 48 hr by SRB assay; conditions: OVCAR-4, 48 h
NCI-H23 [6] = test: Cytotoxicity against Homo sapiens (human) NCI-H23 cells after 48 hr by SRB assay; conditions: NCI-H23, 48 h
EKVX = test: Cytotoxicity against Homo sapiens (human) EKVX cells after 48 hr by SRB assay
T47D = test: Cytotoxicity against Homo sapiens (human) T47D cells after 48 hr by SRB assay
SK-MEL-28 = test: Cytotoxicity against Homo sapiens (human) SK-MEL-28 cells after 48 hr by SRB assay; conditions: SK-MEL-28, 48 h
OVCAR-8 = test: Cytotoxicity against Homo sapiens (human) OVCAR8 cells after 48 hr by SRB assay; conditions: OVCAR-8, 48 h
SW-620 = test: Cytotoxicity against Homo sapiens (human) SW620 cells after 48 hr by SRB assay; conditions: SW-620, 48 h
[7] = read-out: LC50 (the source's name)

CC(=O)Oc1c(C2=NN(C(C)=O)C(c3ccc(F)cc3)O2)sc2nnc(-c3ccccc3)c(-c3ccccc3)c12 (centres undefined)
growth at 10 µM (HT-29): 102% | growth at 10 µM (Hs-578T): 120% | growth at 10 µM (NCI-H23 [1]): 103% | growth at 10 µM (ACHN): 72% | growth at 10 µM (KM12): 81.7% | growth at 10 µM (SK-MEL-2): 99.9% | growth at 10 µM (SK-OV-3): 97.6% | growth at 10 µM (HCT-15 [2]): 61.1% | growth at 10 µM (OVCAR-3): 96.3% | growth at 10 µM (SF-539): 104% | growth at 10 µM (UO-31): 83.3% | growth at 10 µM (HOP-92): 46.2% | growth at 10 µM (MOLT-4): 55.1% | growth at 10 µM (NCI-H522): 80.4% | growth at 10 µM (UACC-257 [3]): 113% | growth at 10 µM (NCI-H322M): 85.7% | growth at 10 µM (U-251): 105% | growth at 10 µM (SF-268): 89.6% | growth at 10 µM (MDA-MB-231): 85.9% | growth at 10 µM (HOP-62): 121%

CC(=O)Oc1c(C2=NN(C(C)=O)C(c3ccccc3[N+](=O)[O-])O2)sc2nnc(-c3ccccc3)c(-c3ccccc3)c12 (centres undefined)
growth at 10 µM (HT-29): 87.5% | growth at 10 µM (Hs-578T): 114% | growth at 10 µM (NCI-H23 [1]): 101% | growth at 10 µM (ACHN): 86.8% | growth at 10 µM (KM12): 108% | growth at 10 µM (SK-MEL-2): 101% | growth at 10 µM (SK-OV-3): 106% | growth at 10 µM (HCT-15 [2]): 78% | growth at 10 µM (OVCAR-3): 93.4% | growth at 10 µM (SF-539): 107% | growth at 10 µM (UO-31): 78.9% | growth at 10 µM (HOP-92): 72.3% | growth at 10 µM (MOLT-4): 47.2% | growth at 10 µM (NCI-H522): 92% | growth at 10 µM (UACC-257 [3]): 101% | growth at 10 µM (Malme-3M): 93.2% | growth at 10 µM (U-251): 80.5% | growth at 10 µM (SF-295): 85% | growth at 10 µM (SF-268): 85.6% | growth at 10 µM (MDA-MB-231): 89.6% | growth at 10 µM (HOP-62): 109%

Oc1c(-c2nnc(-c3ccc(Cl)cc3)o2)sc2nnc(-c3ccccc3)c(-c3ccccc3)c12
growth at 10 µM (HT-29): 91.2% | GI50 (NCI-H460): 3.15 µM | TGI (NCI-H460): 8.07 µM | CC50 (NCI-H460; [7]): 0.0183 µM | GI50 (A498): 5.92 µM | TGI (A498): 12.5 µM | CC50 (A498; [7]): 0.0183 µM | growth at 10 µM (Hs-578T): 62.4% | growth at 10 µM (NCI-H23 [1]): 56.5% | growth at 10 µM (ACHN): 54% | growth at 10 µM (KM12): 39.2% | GI50 (UACC-257 [4]): 6.16 µM | TGI (UACC-257 [4]): 15 µM | CC50 (UACC-257 [4]; [7]): 0.0183 µM | growth at 10 µM (SK-MEL-2): 87.1% | growth at 10 µM (SK-OV-3): 61.9% | growth at 10 µM (HCT-15 [2]): 32% | growth at 10 µM (OVCAR-3): 26% | growth at 10 µM (SF-539): 55% | GI50 (HCT-15 [5]): 2.27 µM | TGI (HCT-15 [5]): 18.3 µM | GI50 (OVCAR-4): 4.75 µM | TGI (OVCAR-4): 18.3 µM | CC50 (OVCAR-4; [7]): 0.0183 µM | growth at 10 µM (HOP-92): 54.5% | growth at 10 µM (MOLT-4): 35.8% | growth at 10 µM (NCI-H522): 75.1% | growth at 10 µM (UACC-257 [3]): 85% | GI50 (NCI-H23 [6]): 4.94 µM | TGI (NCI-H23 [6]): 18.3 µM | GI50 (EKVX): 4.05 µM | TGI (EKVX): 11.2 µM | CC50 (EKVX; [7]): 0.0183 µM | GI50 (T47D): 4.89 µM | TGI (T47D): 18.3 µM | GI50 (SK-MEL-28): 1.14 µM | TGI (SK-MEL-28): 18.3 µM | CC50 (SK-MEL-28; [7]): 0.0183 µM | growth at 10 µM (U-251): 32.6% | growth at 10 µM (SF-295): 23.5% | growth at 10 µM (SF-268): 55.2% | GI50 (OVCAR-8): 4.38 µM | TGI (OVCAR-8): 18.3 µM | CC50 (OVCAR-8; [7]): 0.0183 µM | GI50 (SW-620): 4.56 µM | TGI (SW-620): 6.61 µM | growth at 10 µM (MDA-MB-231): 77.9% | growth at 10 µM (HOP-62): 51.2%
